Patent US20210106567A1, “COMPOSITIONS AND METHODS FOR INHIBITING CARP-1 BINDING TO NEMO” (United States Government As Represented By The Department …, priority 2019, published 2021)
Read-outs that look alike come from different tables or passages of the source.

Experiments:
[1] = biological target: T1, NEMO interaction with CARP-1 (Homo sapiens, UniProt Q8IX12); assay: IP-WB in Gst-NEMO expressing HBC cells, CARP-1; type: cell-based; details: alone or in combination with Adriamycin
T1 construct: expressed in transfected cells; host or cells: HBC cells stably expressing Gst-NEMO
Procedure: The biochemical mechanism of inhibition of CARP-1 (551-580; SEQ ID NO: 6) binding with NEMO (221-261; SEQ ID NO: 2) by SNI-1 was assessed. E. coli expressed Gst-NEMO (221-261; SEQ ID NO: 2) and His-TAT-HA-CARP-1 (551-580; SEQ ID NO: 6) peptides in IP-WB assays were used. […] Since Adriamycin activates ATM to regulate canonical NF-κB and DSB repair pathways, it remains to be clarified whether CARP-1 regulates RIPK1 signaling dependent and/or independent of ATM.
(§1) The cells were lysed to prepare protein extracts.

MTT cell viability [2] = type: cell-based, human; details: human, MDA-MB-231 TNBC cells; 1.0, 2.5, 5.0, or 10.0 μM over 24 h; read-out: loss of viability
Procedure: (§2) The murine TNBC cell line 4T1 that was derived from a spontaneously arising BALB/c mammary tumor were obtained from the Karmanos Cancer Institute (KCl), and were maintained in culture (Cheriyan et al. (2016) Oncotarget 7, 73370-73388). […] The cell culture media were also supplemented with 10% FBS, 100 units/ml of penicillin, and 100 μg/ml of streptomycin, and the cells were maintained at 37° C. and 5% CO2. For cell growth and MTT studies, the cells were cultured in fresh media with 5%-10% FBS prior to their treatments with various agents.
(§3) Cell Viability, Immunoprecipitation and Western Blot assays: 500-1000 cells were seeded in each well of 96 well plate and then either untreated (control) or treated with various agents for noted times. After treatment, MTT reagent was added at 0.5 mg/ml concentration for 2-4 hours at 37° C. DMSO was added to solubilize formazan and the plate was read at 570 nm in a plate reader. The histograms indicating levels of cell viability were generated by plotting the net absorbances (Rishi et al. (2003) J Biol Chem 278, 33422-33435; and Rishi et al. (2006) J Biol Chem 281, 13188-13198).

MDA-MB-231 TNBC cells = assay: MTT cell viability; type: cell-based, human; details: Homo sapiens, MDA-MB-231, 72 h
Procedure: as §2, §3

MTT cell viability [3] = type: cell-based, murine; details: mouse, 4T1 TNBC cells; 1.0, 2.5, 5.0, or 10.0 μM over 24 h; read-out: loss of viability
Procedure: as §2, §3

4T1 TNBC cells = assay: MTT cell viability; type: cell-based, murine; details: Mus musculus, 72 h
Procedure: as §2, §3

[4] = tested on: diffuse large B cell lymphoma cells; assay: Cell viability, lymphoma; type: cell-based; details: Homo sapiens, read-out: IC50, reduced viabilities
[5] = tested on: mammospheres derived from human TNBC PDX tumors; assay: Three-dimensional mammosphere assay (MTT); type: cell-based; details: SNI-1 2.5 or 5.0 μM, Adriamycin 5 μM, 48 h
Procedure: Three-dimensional Mammosphere Assays: The PDX tumor cells were dissociated from the tumor fragments, and cultured for 2-dimensional and mammosphere studies in vitro (Cheriyan et al. (2016) Oncotarget 7, 73370-73388). Briefly, the cells were washed twice in 1×PBS, trypsinized, and pelleted at 200×g at room temperature. Cells were then re-suspended in 5 ml of mammosphere media (DMEM/F12 containing 2 mM L-glutamine, 100 U/ml penicillin, 100 U/ml streptomycin, 1×B27 supplement, 20 ng/ml recombinant human epidermal growth factor (EGF; Sigma), 10 ng/ml recombinant human basic fibroblast growth factor (bFGF; R&D Systems). Approximately 5000 viable cells per ml was then seeded in an ultra-low adherent 60 mm plate and incubated at 37° C. and 5% CO2 for two weeks without disturbing the plates. After the mammospheres formed, fresh media with or without Adriamycin (5 μM), SNI-1 (2.5 or 5.0 μM), or a combination of these agents was added and the cells incubated for additional 48 h at 37° C. and 5% CO2. The mammospheres in the untreated and treated plates were photographed, and the cells were then dissociated to determine their viabilities by the MTT assay (Cheriyan et al. (2016) Oncotarget 7, 73370-73388).

MTT cell viability [6] = type: cell-based; details: human, wild-type HeLa cells; read-out: reduction in the viabilities
HeLa CARP-1 ko cells = assay: MTT cell viability; type: cell-based, human
HeLa NEMO ko cells = assay: MTT cell viability; type: cell-based, human
[7] = tested on: CARP-1 levels, cleavage of PARP or caspase-3; assay: Western blot for apoptosis markers; type: cell-based
Source text: as §1

[8] = tested on: p65/RelA activation and phosphorylation of NEMO; assay: Western blot for canonical NF-κB activation; type: cell-based; details: in presence of SNI-1
Source text: as §1

cleaved RIPK1 = assay: Western blot for RIPK1 cleavage; type: cell-based
Source text: as §1

human TNBC cells = assay: Cytokine ELISA of culture media; type: cell-based; details: versus untreated cells
[9] = tested on: parental and chemo-resistant human and murine TNBC cells and parental renal cancer cells; assay: Cytokine ELISA of culture media, chemotherapy-induced secretion; type: cell-based; details: SNI-1 with Adriamycin or Cisplatin
4T1 TNBC tumors = assay: 4T1 TNBC syngeneic tumor efficacy study in Balb/c mice; type: in vivo, mouse
Procedure: Establishment of TNBC cell-derived xenografts in Syngeneic mice: Generation of 4T1 TNBC cell-derived sub-cutaneous xenografts in Balb/c mice were performed (Cheriyan et al. (2016) Oncotarget 7, 73370-73388; and Cheriyan et al. (2017) Oncotarget 8, 104928-104945). BALB/cAnNCr, 6-8-weeks old, female mice were purchased from Charles River Laboratories (Horsham, Pa.). Following suitable acclimation of animals, 1×10^6 4T1 TNBC cells were re-suspended in 200 μl of sterile saline, and implanted in the flanks using a 27-gauge needle. Tumors were allowed to grow to 500-1000 mg (˜10 days), and the aseptically harvested, minced into 3-4 mm^3 (30 mg) fragments and transplanted SC into naïve recipient mice using a standard 12 gauge trocar to serially maintain the tumor in vivo. For efficacy studies, tumors serially maintained in vivo were aseptically harvested and minced into 3-4 mm^3 (30 mg) fragments, then bilaterally transplanted subcutaneously along the flanks using a standard 12 gauge trocar. […] For the efficacy studies, SNI-1 was formulated in 8% DMSO (v/v) and 8% Cremophor (v/v) in cell grade water, pH4 as diluent.
Clinical grade ADR stock (2 mg/mL) was diluted to the appropriate concentration with cell grade water; pH4 and clinical grade CIS (1 mg/ml) diluted with USP 0.9% saline; pH6). Mice were monitored daily for changes in condition and body weight. Tumors were measured three times weekly by caliper and tumor volume (mg) was calculated using the following formula: (A×B2)/2 where A and B are the tumor length and width (in mm), respectively. […] Efficacy was also assessed quantitatively using tumor growth delay (T−C) defined as the difference between the median time (in days) required for the treatment group tumors (T) to reach 1000 mg and the median time (days) for the control group tumors to reach the same volume. Post last treatment, tumor tissue and samples from various organs (spleen, liver, kidney, heart, bone, and lungs) were collected. Additionally, the whole blood samples were obtained from a representative tumor-bearing mouse from each group via terminal cardiac puncture. Immuno-histochemical analyses of the tumor and tissue samples were performed for expression of activated RelA (serine 536 phosphorylated p65), total RelA, cleaved caspase-3, and CARP-1 proteins. The levels of pro-inflammatory cytokines in the sera were analyzed by sandwich ELISA assays following methods detailed herein (Cheriyan et al. (2016) Oncotarget 7, 73370-73388; and Cheriyan et al. (2017) Oncotarget 8, 104928-104945).

[10] = Dose-route determination in non-tumor-bearing mice; type: in vivo, mouse; details: 5% DMSO, 5% ethanol, 2% Tween 80 formulation
MDR1 = assay: Levels of drug efflux pump MDR1; type: cell-based, human; details: MDA-MB-468 cells
Source text: Of note is that SNI-1 in combination with Adriamycin provoked a greater inhibition of tumor growth when compared with the tumor growth inhibition noted in animals treated with either agent alone. […] Since TNBCs and many other cancers are often known to express drug efflux pumps that contribute to lower efficacy of drugs in clinic and development of drug-resistant tumors, it is likely that the presence/expression of these drug efflux pumps function in part to interfere with a robust anti-tumor response to a combination of SNI-1 and Adriamycin.

T1 sequence (Q8IX12 whole entry): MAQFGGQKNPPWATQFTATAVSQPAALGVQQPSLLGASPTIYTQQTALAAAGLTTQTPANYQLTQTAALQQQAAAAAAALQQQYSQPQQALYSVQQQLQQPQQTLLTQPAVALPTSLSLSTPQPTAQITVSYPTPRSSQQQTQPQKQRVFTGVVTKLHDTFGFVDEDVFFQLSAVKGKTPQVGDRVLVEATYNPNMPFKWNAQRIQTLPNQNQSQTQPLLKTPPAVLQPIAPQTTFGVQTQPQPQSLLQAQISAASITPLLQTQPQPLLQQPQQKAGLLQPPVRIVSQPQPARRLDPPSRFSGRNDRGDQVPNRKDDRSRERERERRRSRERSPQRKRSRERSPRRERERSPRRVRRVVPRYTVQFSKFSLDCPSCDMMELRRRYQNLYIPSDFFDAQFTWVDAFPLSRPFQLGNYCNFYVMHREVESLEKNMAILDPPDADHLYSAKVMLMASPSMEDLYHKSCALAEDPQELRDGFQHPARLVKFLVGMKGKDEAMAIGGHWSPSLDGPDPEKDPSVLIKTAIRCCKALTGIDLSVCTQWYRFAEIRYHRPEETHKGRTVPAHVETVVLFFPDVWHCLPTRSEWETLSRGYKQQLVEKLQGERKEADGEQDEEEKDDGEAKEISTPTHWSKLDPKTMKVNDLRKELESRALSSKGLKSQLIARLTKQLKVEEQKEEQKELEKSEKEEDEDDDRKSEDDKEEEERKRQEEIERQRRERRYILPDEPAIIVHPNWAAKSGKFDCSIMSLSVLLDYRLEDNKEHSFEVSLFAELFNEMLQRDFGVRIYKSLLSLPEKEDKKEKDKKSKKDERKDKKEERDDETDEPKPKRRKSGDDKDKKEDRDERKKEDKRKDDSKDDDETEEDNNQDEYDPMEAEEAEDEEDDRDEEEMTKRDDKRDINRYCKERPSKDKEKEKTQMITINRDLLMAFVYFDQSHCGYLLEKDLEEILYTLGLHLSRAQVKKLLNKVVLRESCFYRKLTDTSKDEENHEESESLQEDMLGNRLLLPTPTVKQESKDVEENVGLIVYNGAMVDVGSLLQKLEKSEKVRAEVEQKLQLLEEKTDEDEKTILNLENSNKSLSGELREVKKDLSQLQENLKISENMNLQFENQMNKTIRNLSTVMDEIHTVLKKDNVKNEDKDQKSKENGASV

Cc1ccc(-n2nnnc2SCC(=O)c2ccc(O)c(O)c2)cc1 [SNI-1, 1-(3,4-dihydroxyphenyl)-2-{(1-(4-methylphenyl)-1H-tetrazol-5-yl)thio}ethanone]
NEMO interaction with CARP-1 (IP-WB) [1]: abrogated NEMO interaction with CARP-1
cytotoxicity at 24 h (MTT cell viability [2]): 10 to 20%
IC50 (MDA-MB-231 TNBC cells): 4 to 4.5 µM
cytotoxicity at 24 h (MTT cell viability [3]): 10 to 20%
IC50 (4T1 TNBC cells): 4 to 4.5 µM
IC50 [4]: ~10 µM
growth/viability of mammospheres [5]: failed to inhibit growth of mammospheres
cytotoxicity (MTT cell viability [6]): ~30%
loss of viabilities (HeLa CARP-1 ko cells): failed to provoke any loss of viabilities
loss of viabilities versus similarly treated wild-type HeLa cells (HeLa NEMO ko cells): further significant loss of viabilities
apoptosis (elevated CARP-1 levels, cleavage of PARP or caspase-3) [7]: stimulation of apoptosis
p65 activation and NEMO phosphorylation by Adriamycin or Cisplatin [8]: diminished p65 activation and NEMO phosphorylation
expression of cleaved RIPK1 (cleaved RIPK1): induced expression of cleaved RIPK1
levels of TNFα and IL-8 in culture media (human TNBC cells): modest increase
secretion of chemotherapy-induced TNFα, IL-8, and IL-1β [9]: robust decline in secretion
inhibition of tumor growth (4T1 TNBC tumors; 70 mg/kg/dose i.p. QD 1-13): absent to minimal inhibition of tumor growth
toxicities in the animals (4T1 TNBC tumors; 70 mg/kg/dose i.p. QD 1-13): did not provoke toxicities
activated caspase-3 in normal tissues (immuno-histochemistry) (4T1 TNBC tumors; mouse, in vivo): failed to show presence of activated caspase-3
hematoxylin and eosin staining of lungs, spleen, heart, liver, kidneys, and bone marrow (4T1 TNBC tumors; mouse, in vivo): did not indicate microscopic alterations
cleaved caspase-3 in tumors (immuno-histochemistry) (4T1 TNBC tumors; versus untreated control animal): strong presence of cleaved caspase-3
suitability for chronic intravenous administration [10]: not suitable for chronic intravenous administration
levels of drug efflux pump MDR1 (MDR1): robust increase
